The values that follow come from patent US20240408112A1, “METHOD FOR PREVENTING OR TREATING PULMONARY ARTERIAL HYPERTENSION BY USING 7-DEHYDROCHOLESTEROLS OR SALTS, OXIDES, METABOLITES, OR DERIVATIVES THEREOF” (EXCELSIOR PHARMATECH LABS., priority 2023, published 2024).

For series [1], the system named is normal rat pulmonary artery smooth muscle cells (rPASMC CON). As to the kind of experiment: BrdU cell proliferation assay, 10% FBS, rPASMC CON. Type of series: cell-based. The protocol:
(§1) BrdU (5-bromo-2-deoxyuridine) cell proliferation assay (BrdU assay)
(§2) A 48-well plate was used, and 1.5×10^4 cells were implanted in each well. After 24 hours, the medium was changed to serum-free culture medium and synchronized for 24 hours. A 2-fold concentration of the compound in serum-free culture medium is prepared and the cells were pretreated for 1 hour. Then, the same volume of culture medium containing 20% fetal bovine serum (FBS) was added to dilute the compound. The final concentration was 10% FBS culture medium and 1 times the concentration of the compound. In the experimental group that added TGF-β, the same volume of TGF-β culture medium containing 10 ng/mL was added, with a final concentration of 5 ng/mL TGF-β and 1 times the concentration of the compound, and in the experimental group added with TGF-β, the entire process was conducted in culture medium containing 0.1% serum. Then, BrdU reagent was added about 6 hours later, and the cells were collected the next day for enzyme-linked immunosorbent assay (ELISA) analysis, the compound treatment time was about 24 hours, and the BrdU treatment time was about 18 hours.
(§3) Five compounds to be tested were screened by cell survival assay (MTT assay) and BrdU (5-bromo-2-deoxyuridine) cell proliferation assay, and the information of these compounds was listed in Table 1 below. Tables 2 and 3 respectively listed the growth inhibitions of on human pulmonary artery endothelial cells (hPAEC), human pulmonary artery smooth muscle cells (hPASMC), normal rat pulmonary artery smooth muscle cells (rPASMC, as the control group, represented by “CON”), and rat pulmonary artery smooth muscle cells (represented by “MCT”), by the five compounds to be tested under the conditions of 10% FBS, 0.1% FBS and 100 pM TGF-β.

The subject of series [2] is human pulmonary artery smooth muscle cells (hPASMC). Nature of the series: BrdU cell proliferation assay, 0.1% FBS, 100 pM TGF-β, hPASMC. As to conditions: hPASMC, 100 pM TGF-β, 0.1% FBS. Format: cell-based. As for the experimental part:
as §1, §2, §3

Series [3] relates to TGF-β-stimulated PAI-1 promoter activity. As to the kind of experiment: TGF-β stimulated Pai-1 luciferase assay in MLECs-clone32 cells. Type of series: cell-based. As to conditions: TGF-β 50 pM, 4 hours, read-out: IC50 value of compound inhibiting TGF-β-stimulated Pai-1 luciferase activity (%). The text has this:
TGF-β Stimulated Pai-1 Luciferase Assay
MLECs-clone32 cell line was used to measure the impact of different compounds on the downstream gene, plasminogenactivator inhibitor 1 (PAI-1) performance stimulated by TGF-β. MLECs-clone32 is an expression construct that is stably transfected for the Mv1Lu cell line, and the expression construct PAI-1 Luciferase contains a truncated (PAI-1) promoter fused to the firefly luciferase reporter gene^11,12. The activity stimulated by the truncated PAI-I promoter was quantified by using a luciferase assay. The luciferase activity stimulated by TGF-β in cells without compound treatment was set as 100%, and the effects of each compound on TGF-β-stimulated PAI-I promoter activity were compared. The steps for measuring Pai-1 luciferase activity include using a 96-well plate (DMEM medium containing 10% FBS), seeding each well with 1.5×10^5 cells, and culturing in an incubator overnight. After discarding the medium the next day, cells in DMEM medium with or without the addition of test compounds were treated with recombinant TGF-β (50 pM) and allowed to react in a 37° C. incubator for 4 hours. The cell culture medium was aspirated, washed with PBS, and the activity of Pai-1 luciferase was evaluated by luciferase assay.

Series [4] relates to monocrotaline induced pulmonary arterial hypertension rat. Nature of the series: Monocrotaline-induced pulmonary arterial hypertension rat model, Example 3 (7-DHC vs macitentan). Type of series: in vivo. The conditions noted are these: for Right ventricle pressure (RVP): 25th day after monocrotaline induction, MCT rats 28.97 mmHg; for Arterial gas analysis PaO2 and PaCO2, in words: between groups CON, MCT and treated; for Thickening of pulmonary arteries, in words: p<0.001, vs MCT rats (exceeded 65%); for Base excess (BE) value: MCT group −6, normal −2 to +2; for Average right ventricle hypertrophy ratio (RV/S+LV): MCT rats 71.64%, normal rats 26.7%. The text has this: Pulmonary arterial hypertension animal experimental model
The present disclosure utilizes injection of monocrotaline to induce symptoms of pulmonary arterial hypertension in rats to establish a pulmonary arterial hypertension animal experimental model suitable for screening test drugs.
The diagnostic method of clinical pulmonary arterial hypertension standards is right heart catheterization, which is defined as mean pulmonary arterial pressure (mPAP) greater than or equal to 20 mmHg. The diagnostic criteria for pulmonary arterial hypertension, in addition to an increase in mean pulmonary arterial pressure, need to be combined with pulmonary vascular resistance (PVR) greater than 3 Wood unit. The right ventricle pressure (RVP) and systemic mean blood pressure (mbp) in rats with pulmonary arterial hypertension were measured by Millar Model PCU200 pressure system, and the heart rate (HR) was also monitored at the same time. After measuring the hemodynamic data, the arterial blood was extracted from the carotid artery of the pulmonary arterial hypertension rat, and the Abbott blood oximeter (i-STAT) combined with Abbott's special chip cartridge (i-STAT Cartridge G3+) was used to measure arterial gas analysis data such as pH, PaO2, PaCO2, HCO3 and base excess (BE) value in quantitative whole blood samples. The normal pH value is between 7.35 and 7.45, and the pH value indicates whether the experimental animal has the condition of acidemia, alkalemia, acidosis or alkalosis. The normal value of PaO2 is between 80 and 100 mmHg, which reflects the effectiveness of gas exchange (ventilation/perfusion). The normal value of PaCO2 is between 35 and 45 (such as 38 and 42) mmHg, which can evaluate the effectiveness of alveolar ventilation. The acid produced by food, tissue decomposition, inflammation and hypoxia rely on the lungs to excrete volatile acid CO2 (short-term) and the bicarbonate (HCO3^−) produced by the kidneys (long-term) to neutralize non-volatile acids, while the normal value of bicarbonate hydrogen radical (HCO3^−) is between 22 and 26 meq/L. BE is the base excess value, its normal value ranges from −2 to +2, the negative value represents the degree of alkali ion deficiency in the blood, a negative BE value (−) that is too high indicates metabolic acidosis, and a positive value (+) that is too high is metabolic alkalosis. At the end of the experiment, the rats were sacrificed and their hearts were removed and the left and right ventricles were separated and weighed (RV)/(S)+(LV).
Monocrotaline was utilized to induce pulmonary arterial hypertension rat animal model, intraperitoneal injection (IP) TGF-β receptor inhibitor 7-DHC (039) and oral administration of macitentan (soluble in methylcellulose), 7-DHC (039) was divided into two groups according to the dosage: 10 mg/kg or 20 mg/kg, and the dosage of macitentan group was 30 mg/kg.

In series [5] the test system is human pulmonary artery smooth muscle cells (hPASMC). As to the kind of experiment: BrdU cell proliferation assay, 10% FBS, hPASMC. Format: cell-based. As for the experimental part: as §1, §2, §3
The test system of series [6] is human pulmonary artery endothelial cells (hPAEC). Nature of the series: BrdU cell proliferation assay, 10% FBS, hPAEC. Format: cell-based. As for the experimental part: as §1, §2, §3

As a reminder, the IC50 is the concentration that gives 50% inhibition. For the molecule `CC(C)CCCC(C)C1CCC2C3=CC=C4CC(O)CCC4(C)C3CCC21C` (centres unmarked) [Code 039, 7-DHC], in series [1] (Rattus norvegicus, read-out: EC50 (concentration for 50% of maximal effect)), the EC50 was 38 µM. Also, the “Inhibition of cell growth (in words)” value in series [1] (rPASMC CON1, 10% FBS, FIG. 2) is given as “significant inhibitory effects”. Further, in series [2] (Homo sapiens, read-out: EC50), the EC50 came out at 24 µM. Further, the “Inhibition of cell growth (in words)” value in series [2] (25 μM, FIG. 3) is given as “inhibition of cell growth”. The IC50 in series [3] stood at 15.5 µM. Besides, in series [4] (10 mg/kg IP), the “Right ventricle pressure (RVP)” value is 17.61 mmHg; the “Arterial gas analysis PaO2 and PaCO2, in words” value is given as “no significant difference”; the “Thickening of pulmonary arteries, in words” value was “significantly reduced”; the “Base excess (BE) value” was −3. In series [4] (10 mg/kg IP), the “Average right ventricle hypertrophy ratio (RV/S+LV)” value amounted to 53.96%. In addition, in series [4] (20 mg/kg IP), the “Activity of the rats” value was “did not affect”, the Survival rate is on record as 100%, the Weight of rats entry was “decreased significantly” and the “Right ventricle pressure (RVP)” value worked out at 19.96 mmHg. In addition, in series [4] (20 mg/kg IP), the “Arterial gas analysis PaO2 and PaCO2, in words” value is listed as “no significant difference”; the “Thickening of pulmonary arteries, in words” value is given as “significantly reduced”; the “Base excess (BE) value” is listed as −1.4; the “Average right ventricle hypertrophy ratio (RV/S+LV)” value is listed as 62.97%. Also, the “Systemic average blood pressure and heartbeat, in words” value in series [4] (10 or 20 mg/kg IP) is given as “did not significantly reduce”. In addition, the EC50 in series [5] (Homo sapiens, read-out: EC50 (concentration for 50% of maximal effect)) was 53 µM. For the same molecule, the “Inhibition of cell growth (in words)” value in series [5] (hPASMC, 10% FBS, FIG. 2) is “inhibition of cell growth can also be observed”. Moreover, the EC50 in series [6] (Homo sapiens, Endothelial cell, read-out: EC50 (concentration for 50% of maximal effect)) is 47 µM. In addition, the “Inhibition of cell growth (in words)” value in series [6] (hPAEC, 10% FBS, FIG. 2) was “inhibition of cell growth can also be observed”.
